Laboratory results: patent US8697739B2, “Bicyclic acetyl-CoA carboxylase inhibitors and uses thereof” (Novartis AG, priority 2010, dated 2014)

The molecules below were run against T1, human acetyl-CoA carboxylase 2 (ACC2) (Homo sapiens, UniProt O00763) (assay: Acetyl-CoA carboxylase enzyme assay (malonyl-CoA formation by LC/MS/MS)). Conditions: recombinant human ACC2 (aa 144-2458); read-out: IC50 ACC2.
T1 construct: The cDNA encoding amino acids 144 to 2458 of human acetyl-CoA carboxylase 2; made in house; host or cells: Sf9 insect cells (baculovirus, pFastBac1)
Assay type: biochemical
How it was run: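 Malonyl-CoA formation was read by LC/MS/MS MRM against a [13C3]-malonyl-CoA internal standard, after acetic acid quench. The enzyme was baculovirus/Sf9-expressed human ACC2 residues 144–2458, given 15 minutes room-temperature compound preincubation in HEPES pH 7.5 buffer with MgCl2, citrate and DTT. Substrate solution held 50 μM acetyl-CoA, 120 μM ATP and 2 mM KHCO3.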

T1 sequence (O00763 144-2458): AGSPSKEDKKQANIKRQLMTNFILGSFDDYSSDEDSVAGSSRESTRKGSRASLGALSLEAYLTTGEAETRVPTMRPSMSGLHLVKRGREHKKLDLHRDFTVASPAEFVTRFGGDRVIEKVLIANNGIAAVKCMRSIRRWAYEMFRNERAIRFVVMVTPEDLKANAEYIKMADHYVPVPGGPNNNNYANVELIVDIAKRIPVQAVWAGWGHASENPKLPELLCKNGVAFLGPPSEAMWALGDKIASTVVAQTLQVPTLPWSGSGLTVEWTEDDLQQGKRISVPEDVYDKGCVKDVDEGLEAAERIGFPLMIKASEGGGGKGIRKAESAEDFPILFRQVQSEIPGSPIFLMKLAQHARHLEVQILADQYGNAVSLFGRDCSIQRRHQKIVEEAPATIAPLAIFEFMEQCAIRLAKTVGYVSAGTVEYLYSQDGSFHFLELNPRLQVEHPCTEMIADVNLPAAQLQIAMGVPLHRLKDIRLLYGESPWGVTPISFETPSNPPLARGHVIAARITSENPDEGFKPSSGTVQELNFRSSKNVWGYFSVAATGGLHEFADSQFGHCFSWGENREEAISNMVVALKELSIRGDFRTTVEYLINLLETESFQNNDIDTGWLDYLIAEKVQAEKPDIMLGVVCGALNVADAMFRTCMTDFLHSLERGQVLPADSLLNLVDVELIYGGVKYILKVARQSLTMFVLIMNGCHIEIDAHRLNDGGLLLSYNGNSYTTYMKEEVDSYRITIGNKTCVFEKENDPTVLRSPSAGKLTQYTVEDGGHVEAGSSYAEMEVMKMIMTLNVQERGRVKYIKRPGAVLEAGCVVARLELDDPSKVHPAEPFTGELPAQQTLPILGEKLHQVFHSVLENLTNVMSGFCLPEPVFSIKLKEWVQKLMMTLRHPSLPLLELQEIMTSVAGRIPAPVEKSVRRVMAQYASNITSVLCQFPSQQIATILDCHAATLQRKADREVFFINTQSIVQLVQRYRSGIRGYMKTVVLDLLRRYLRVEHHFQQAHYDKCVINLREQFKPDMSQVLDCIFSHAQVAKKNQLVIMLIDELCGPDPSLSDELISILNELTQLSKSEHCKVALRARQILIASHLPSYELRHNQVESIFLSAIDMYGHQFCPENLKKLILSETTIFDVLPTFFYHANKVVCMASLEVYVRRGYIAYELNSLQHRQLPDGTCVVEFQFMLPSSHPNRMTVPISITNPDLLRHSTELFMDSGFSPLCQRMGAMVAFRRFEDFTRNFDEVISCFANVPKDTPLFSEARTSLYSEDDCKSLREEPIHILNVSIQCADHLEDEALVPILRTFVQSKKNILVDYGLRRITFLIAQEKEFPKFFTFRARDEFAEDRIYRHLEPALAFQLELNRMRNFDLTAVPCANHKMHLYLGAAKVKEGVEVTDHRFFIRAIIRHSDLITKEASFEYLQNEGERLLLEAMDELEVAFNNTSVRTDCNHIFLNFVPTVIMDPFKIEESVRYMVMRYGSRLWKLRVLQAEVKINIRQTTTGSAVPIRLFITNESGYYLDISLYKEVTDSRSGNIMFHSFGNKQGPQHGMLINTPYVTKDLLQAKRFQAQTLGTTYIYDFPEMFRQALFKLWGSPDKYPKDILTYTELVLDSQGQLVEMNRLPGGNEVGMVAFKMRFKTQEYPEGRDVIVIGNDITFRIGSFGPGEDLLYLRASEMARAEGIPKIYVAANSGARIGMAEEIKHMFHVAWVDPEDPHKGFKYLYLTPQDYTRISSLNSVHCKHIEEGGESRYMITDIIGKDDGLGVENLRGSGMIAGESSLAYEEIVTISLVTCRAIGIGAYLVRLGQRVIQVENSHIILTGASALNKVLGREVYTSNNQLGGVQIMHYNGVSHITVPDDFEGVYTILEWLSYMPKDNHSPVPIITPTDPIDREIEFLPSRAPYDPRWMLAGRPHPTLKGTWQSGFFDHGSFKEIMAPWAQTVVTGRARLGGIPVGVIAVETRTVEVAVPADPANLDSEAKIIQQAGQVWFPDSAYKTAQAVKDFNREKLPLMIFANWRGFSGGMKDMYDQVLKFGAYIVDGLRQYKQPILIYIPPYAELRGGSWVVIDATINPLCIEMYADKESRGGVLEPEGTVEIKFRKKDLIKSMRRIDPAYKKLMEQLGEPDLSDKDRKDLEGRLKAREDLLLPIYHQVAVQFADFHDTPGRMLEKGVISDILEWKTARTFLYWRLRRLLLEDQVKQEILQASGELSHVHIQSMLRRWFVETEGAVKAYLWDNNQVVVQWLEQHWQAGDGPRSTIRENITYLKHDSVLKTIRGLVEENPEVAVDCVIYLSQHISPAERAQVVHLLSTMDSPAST

Compound | IC50
C[C@@H](NC(=O)[C@H]1CC[C@H](NS(=O)(=O)c2ccc3c(c2)NC(=O)CO3)CC1)c1ccc(F)cc1 [Example 112, (1r,4R)-N-((R)-1-(4-fluorophenyl)ethyl)-4-(3-oxo-3,4-dihydro-2H-benzo[b][1,4]oxazine-6-sulfonamido)cyclohexanecarboxamide] | 344 nM
C[C@@H](NC(=O)[C@H]1CC[C@H](NS(=O)(=O)c2ccc3ncsc3c2)CC1)c1ccc(F)cc1 [Example 113, (1r,4R)-4-(benzo[d]thiazole-6-surfonamido)-N-((R)-1-(4-fluorophenyl)ethyl)cyclohexanecarboxamide] | 212 nM
C[C@@H](NC(=O)[C@H]1CC[C@H](NS(=O)(=O)c2ccc3[nH]c([C@@H]4CCCO4)nc3c2)CC1)c1ccc(F)cc1 [Example 114, (1r,4R)-N-((R)-1-(4-fluorophenyl)ethyl)-4-(2-((S)-tetrahydrofuran-2-yl)-1H-benzo[d]imidazole-5-sulfonamido)cyclohexanecarboxamide] | 296 nM
C[C@@H](NC(=O)[C@H]1CC[C@H](NC(=O)c2ccc3cc(-c4ccccc4)[nH]c3c2)CC1)c1ccc(F)cc1 [Example 115, N-((1R,4r)-4-((R)-1-(4-fluorophenyl)ethylcarbamoyl)cyclohexyl)-2-phenyl-1H-indole-6-carboxamide] | 29100 nM
C[C@@H](NC(=O)[C@H]1CC[C@H](NS(=O)(=O)c2ccc3[nH]c([C@H]4CCCO4)nc3c2)CC1)c1ccc(F)cc1 [Example 117, (1r,4R)-N-((R)-1-(4-fluorophenyl)ethyl)-4-(2-((R)-tetrahydrofuran-2-yl)-1H-benzo[d]imidazole-5-sulfonamido)cyclohexanecarboxamide] | 574 nM
C[C@@H](NC(=O)[C@H]1CC[C@H](NS(=O)(=O)c2ccc3[nH]c([C@@H]4CC(F)(F)CN4)nc3c2)CC1)c1ccc(F)cc1 [Example 118, (1r,4R)-4-(2-((S)-4,4-difluoropyrrolidin-2-yl)-1H-benzo[d]imidazole-5-sulfonamido)-N-((R)-1-(4-fluorophenyl)ethyl)cyclohexanecarboxamide] | 1750 nM
C[C@@H](NC(=O)[C@H]1CC[C@H](NS(=O)(=O)c2ccc3c(c2)CCC3)CC1)c1ccc(F)cc1 [Example 119, (1r,4R)-4-(2,3-dihydro-1H-indene-5-sulfonamido)-N-((R)-1-(4-fluorophenyl)ethyl)cyclohexanecarboxamide] | 161 nM
C[C@@H](NC(=O)[C@H]1CC[C@H](NS(=O)(=O)c2ccc3c(c2)OCCO3)CC1)c1ccc(F)cc1 [Example 123, (1r,4R)-4-(2,3-dihydrobenzo[b][1,4]dioxine-6-sulfonamido)-N-((R)-1-(4-fluorophenyl)ethyl)cyclohexanecarboxamide] | 450 nM
C[C@@H](NC(=O)[C@H]1CC[C@H](NS(=O)(=O)c2cnc3c(c2)OCCN3C)CC1)c1ccc(F)cc1 [Example 127, (1r-4R)-N-((R)-1-(4-fluorophenyl)ethyl)-4-(4-methyl-3,4-dihydro-2H-pyrido[3,2-b][1,4]oxazine-7-sulfonamido)cyclohexanecarboxamide] | 391 nM
C[C@@H](NC(=O)[C@H]1CC[C@H](NS(=O)(=O)c2cnc3c(c2)N(C)CCCN3C)CC1)c1ccc(F)cc1 [Example 128, (1r,4R)-4-(1,5-dimethyl-2,3,4,5-tetrahydro-1H-pyrido[2,3-b][1,4]diazepine-8-sulfonamido)-N-((R)-1-(4-fluorophenyl)ethyl)cyclohexanecarboxamide] | 146 nM
C[C@@H]1CCCN1C(=O)[C@H]1CC[C@H](NS(=O)(=O)c2cnc3c(c2)N(C)CCN3C)CC1 [Example 129, 1,4-dimethyl-N-((1R,4r)-4-((R)-2-methylpyrrolidine-1-carbonyl)cyclohexyl)-1,2,3,4-tetrahydropyrido[3,2-b]pyrazine-7-sulfonamide] | 10400 nM
C[C@@H](NC(=O)[C@H]1CC[C@H](NS(=O)(=O)c2cnc3c(c2)N(C)CCO3)CC1)c1ccc(F)cc1 [Example 131, (1r,4R)-N-((R)-1-(4-fluorophenyl)ethyl)-4-(1-methyl-2,3-dihydro-1H-pyrido[2,3-b][1,4]oxazine-7-sulfonamido)cyclohexanecarboxamide] | 173 nM
C[C@@H](NC(=O)[C@H]1CC[C@H](NS(=O)(=O)c2cnc3c(c2)N(CC(F)(F)F)CCN3C)CC1)c1ccc(F)cc1 [Example 135, (1r,4R)-N-((R)-1-(4-fluorophenyl)ethyl)-4-(4-methyl-1-(2,2,2-triffuoroethyl)-1,2,3,4-tetrahydropyrido[3,2-b]pyrazine-7-sulfonamido)cyclohexanecarboxamide] | 157 nM
Cc1ccccc1-c1cc2ccc(S(=O)(=O)N[C@H]3CC[C@H](C(=O)N4CCOCC4)CC3)cc2[nH]1 [Example 136, N-((1R,4r)-4-(morpholine-4-carbonyl)cyclohexyl)-2-o-tolyl-1H-indole-6-sulfonamide] | 187 nM
Cc1ccccc1-c1cc2ccc(S(=O)(=O)N[C@H]3CC[C@H](C(=O)N4CCC[C@H]4C)CC3)cc2[nH]1 [Example 137, N-((1R,4r)-4-((R)-2-methylpyrrolidine-1-carbonyl)cyclohexyl)-2-o-tolyl-1H-indole-6-sulfonamide] | 162 nM
Cc1c[nH]c2ncc(S(=O)(=O)N[C@H]3CC[C@H](C(=O)N[C@H](C)c4ccc(F)cc4)CC3)cc12 [Example 138, (1r,4R)-N-((R)-1-(4-fluorophenyl)ethyl)-4-(3-methyl-1H-pyrrolo[2,3-b]pyridine-5-sulfonamido)cyclohexanecarboxamide] | 147 nM

Molecules with a lower IC50, results first:

IC50 | Compound
13 nM | CC(C)[Si](C(C)C)(C(C)C)n1cc(Cl)c2ccc(S(=O)(=O)N[C@H]3CC[C@H](C(=O)N[C@H](C)c4ccc(F)cc4)CC3)cc21 [Example 116, (1r,4R)-4-(3-chloro-1-(triisopropylsilyl)-1H-indole-6-sulfonamido)-N-((R)-1-(4-fluorophenyl)ethyl)cyclohexanecarboxamide]
34 nM | C[C@@H](NC(=O)[C@H]1CC[C@H](NS(=O)(=O)c2ccc3nc(-c4ccccc4)sc3c2)CC1)c1ccc(F)cc1 [Example 120, (1r,4R)-N-((R)-1-(4-fluorophenyl)ethyl)-4-(2-phenylbenzo[d]thiazole-6-sulfonamido)cyclohexanecarboxamide]
17 nM | C[C@@H](NC(=O)[C@H]1CC[C@H](NS(=O)(=O)c2ccc3[nH]c(-c4ccccc4)nc3c2)CC1)C1CCCCC1 [Example 121, (1r,4R)-N-((R)-1-cyclohexylethyl)-4-(2-phenyl-1H-benzo[d]imidazole-5-sulfonamido)cyclohexanecarboxamide]
16 nM | C[C@@H](NC(=O)[C@H]1CC[C@H](NS(=O)(=O)c2ccc3c(c2)OCCN3C)CC1)c1ccc(F)cc1 [Example 122, (1r,4R)-N-((R)-1-(4-fluorophenyl)ethyl)-4-(4-methyl-3,4-dihydro-2H-benzo[b][1,4]oxazine-7-sulfonamido)cyclohexanecarboxamide]
32 nM | Cc1c(Cl)[nH]c2ccc(S(=O)(=O)N[C@H]3CC[C@H](C(=O)N[C@H](C)c4ccc(F)cc4)CC3)cc12 [Example 124, (1r,4R)-4-(2-chloro-3-methyl-1H-indole-5-sulfonamido)-N-((R)-1-(4-fluorophenyl)ethyl)cyclohexanecarboxamide]
58 nM | C[C@@H]1CCCN1C(=O)[C@H]1CC[C@H](NS(=O)(=O)c2ccc3[nH]c(-c4ccccc4)nc3c2)CC1 [Example 125, N-((1R,4r)-4-((R)-2-methylpyrrolidine-1-carbonyl)cyclohexyl)-2-phenyl-1H-benzo[d]imidole-5-sulfonamide]
71 nM | COCCn1c(-c2ccccc2)nc2cc(S(=O)(=O)N[C@H]3CC[C@H](C(=O)N[C@H](C)c4ccc(F)cc4)CC3)ccc21 [Example 126, (1r,4R)-N-((R)-1-(4-fluorophenyl)ethyl)-4-(1-(2-methoxyethyl)-2-phenyl-1H-benzo[d]imidazole-5-sulfonamido)cyclohexanecarboxamide]
59 nM | C[C@@H](NC(=O)[C@H]1CC[C@H](NS(=O)(=O)c2cnc3c(c2)N(C)CCN3)CC1)c1ccc(F)cc1 [Example 130, (1r,4R)-N-((R)-1-(4-fluorophenyl)ethyl)-4-(1-methyl-1,2,3,4-tetrahydropyrido[3,2-b]pyrazine-7-sulfonamido)cyclohexanecarboxamide]
68 nM | C[C@@H](NC(=O)[C@H]1CC[C@H](NS(=O)(=O)c2cnc3c(c2)N(C2CC2)CCN3C)CC1)c1ccc(F)cc1 [Example 132, (1r,4R)-4-(1-cyclopropyl-4-methyl-1,2,3,4-tetrahydropyrido[3,2-b]pyrazine-7-surfonamido)-N-((R)-1-(4-fluorophenyl)ethyl)cyclohexanecarboxamide]
46 nM | C[C@@H](NC(=O)[C@H]1CC[C@H](NS(=O)(=O)c2ccc3c(c2)N(C)CCN3C)CC1)c1ccc(F)cc1 [Example 133, (1r,4R)-4-(1,4-dimethyl-1,2,3,4-tetrahydroquinoxaline-6-sulfonamido)-N-((R)-1-(4-fluorophenyl)ethyl)cyclohexanecarboxamide]
28 nM | C[C@@H](NC(=O)[C@H]1CC[C@H](NS(=O)(=O)c2cnc3c(c2)N(C)C2CCCCC2N3C)CC1)c1ccc(F)cc1 (stereo partly drawn) [Example 134, (1r,4R)-4-(5,10-dimethyl-5,5a,6,7,8,9,9a,10-octahydropyrido[3,2-b]quinoxaline-3-sulfonamido)-N((R)-1-(4-fluorophenyl)ethyl)cyclohexanecarboxamide]
16 nM | C[C@@H](NC(=O)[C@H]1CC[C@H](NS(=O)(=O)c2cnc3c(c2)N(C)[C@@H]2CCCC[C@H]2N3C)CC1)c1ccc(F)cc1 [Example 139, (1R,4R)-4-((5aR,9aR)-5,10-dimethyl-5,5a,6,7,8,9,9a,10-octahydropyrido[3,2-b]quinoxaline-3-sulfonamido)-N-((R)-1-(4-fluorophenyl)ethyl)cyclohexanecarboxamide]
